Experimental findings from ChEMBL document CHEMBL5465560, “Selectivity Literature for EUbOPEN Chemogenomic Library” (2024) are described below.

Test [1] concerns the target Serine/threonine-protein kinase 33 (Homo sapiens) (UniProt Q9BYT3). In words: Selectivity interaction (LanthaScreen Eu Kinase Binding Assay) EUB0001632a STK33. The conditions noted are these: at 10 µM. Background: In TR-FRET formats the signal depends on donor and acceptor labels being close together.
The target in test [2] is Insulin receptor-related protein (Homo sapiens) (UniProt P14616). In words: Selectivity interaction (KinomeScan (DiscoverX)) EUB0000666a INSRR. Conditions: at 10 µM.
Test [3] addresses Tyrosine-protein kinase FRK (Homo sapiens) (UniProt P42685). In words: Selectivity interaction (KinomeScan (DiscoverX)) EUB0001079a FRK. Conditions: at 1 µM.
Test [4] has as its target T1, Eukaryotic elongation factor 2 kinase (Homo sapiens) (UniProt O00418).
T1 sequence (whole entry): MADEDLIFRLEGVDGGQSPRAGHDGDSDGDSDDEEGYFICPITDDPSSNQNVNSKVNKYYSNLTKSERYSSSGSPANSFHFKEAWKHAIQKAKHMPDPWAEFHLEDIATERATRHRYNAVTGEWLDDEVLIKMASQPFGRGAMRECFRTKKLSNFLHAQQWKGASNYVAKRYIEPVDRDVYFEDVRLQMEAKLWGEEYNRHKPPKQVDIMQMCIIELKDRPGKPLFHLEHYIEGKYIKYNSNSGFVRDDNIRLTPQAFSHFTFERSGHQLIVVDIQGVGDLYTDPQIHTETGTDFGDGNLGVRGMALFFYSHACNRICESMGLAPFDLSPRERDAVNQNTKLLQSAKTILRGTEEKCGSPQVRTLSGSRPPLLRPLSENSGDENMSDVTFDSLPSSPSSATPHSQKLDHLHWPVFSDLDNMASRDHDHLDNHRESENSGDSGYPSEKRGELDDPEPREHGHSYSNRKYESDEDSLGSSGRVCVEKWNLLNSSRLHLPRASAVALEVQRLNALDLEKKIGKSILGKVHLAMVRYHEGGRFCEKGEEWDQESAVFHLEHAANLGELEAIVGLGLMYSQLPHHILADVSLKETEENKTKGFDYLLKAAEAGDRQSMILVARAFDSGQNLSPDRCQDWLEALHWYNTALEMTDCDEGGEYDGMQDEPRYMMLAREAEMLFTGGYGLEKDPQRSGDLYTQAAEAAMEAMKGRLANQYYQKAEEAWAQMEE
In words: Selectivity interaction (Kinase panel (literature)) EUB0001199aCl EEF2K. Conditions: at 1 µM.

The target of test [5] is Tyrosine-protein kinase JAK1 (Homo sapiens, UniProt P23458). In words: Selectivity interaction (ActivX KiNativ screen (kinase selectivity in THP-1 cell lysates)) EUB0000639a JAK1. In kind it is subcellular. Conditions: lysate, at 5 µM.
In test [6] the target is Mitogen-activated protein kinase kinase kinase kinase 5 (Homo sapiens) (UniProt Q9Y4K4). Description: Selectivity interaction (Kinase panel (Invitrogen)) EUB0000639a MAP4K5. The conditions noted are these: at 200 nM.
Test [7] concerns the target Insulin-like growth factor 1 receptor (Homo sapiens, UniProt P08069). Description: Selectivity interaction (KinomeScan (DiscoverX)) EUB0001049a IGF1R. Conditions: at 1 µM.
Test [8] addresses Dual specificity protein kinase CLK1 (Homo sapiens, UniProt P49759). Description: Selectivity interaction (ProQinase) EUB0000171b CLK1.
In test [9] the target is T2, Serine/threonine-protein kinase BRSK2 (Homo sapiens) (UniProt Q8IWQ3).
T2 sequence (whole entry): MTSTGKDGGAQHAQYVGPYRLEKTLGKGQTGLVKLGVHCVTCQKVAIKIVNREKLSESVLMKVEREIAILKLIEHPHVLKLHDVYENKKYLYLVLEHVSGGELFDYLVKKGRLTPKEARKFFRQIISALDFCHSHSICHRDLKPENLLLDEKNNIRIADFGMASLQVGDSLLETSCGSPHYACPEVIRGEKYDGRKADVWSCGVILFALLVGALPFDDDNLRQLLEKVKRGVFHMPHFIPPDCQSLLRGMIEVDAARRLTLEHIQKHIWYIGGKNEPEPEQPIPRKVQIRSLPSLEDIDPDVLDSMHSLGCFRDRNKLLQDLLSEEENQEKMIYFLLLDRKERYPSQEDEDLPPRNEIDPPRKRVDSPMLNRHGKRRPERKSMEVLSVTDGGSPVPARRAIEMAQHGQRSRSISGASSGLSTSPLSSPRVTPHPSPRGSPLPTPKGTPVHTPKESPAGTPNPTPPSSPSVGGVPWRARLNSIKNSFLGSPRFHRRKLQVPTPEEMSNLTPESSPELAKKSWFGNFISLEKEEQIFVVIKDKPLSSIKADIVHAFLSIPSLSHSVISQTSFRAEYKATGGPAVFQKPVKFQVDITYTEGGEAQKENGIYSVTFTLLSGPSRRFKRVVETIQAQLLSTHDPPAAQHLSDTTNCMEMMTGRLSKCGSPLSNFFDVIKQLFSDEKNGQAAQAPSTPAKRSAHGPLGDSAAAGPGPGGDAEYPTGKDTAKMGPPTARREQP
Description: Selectivity interaction (KinomeScan (DiscoverX)) EUB0000045b BRSK2.

For test [10], the target named is T3, Mitogen-activated protein kinase kinase kinase kinase 3 (Homo sapiens) (UniProt Q8IVH8).
T3 sequence (whole entry): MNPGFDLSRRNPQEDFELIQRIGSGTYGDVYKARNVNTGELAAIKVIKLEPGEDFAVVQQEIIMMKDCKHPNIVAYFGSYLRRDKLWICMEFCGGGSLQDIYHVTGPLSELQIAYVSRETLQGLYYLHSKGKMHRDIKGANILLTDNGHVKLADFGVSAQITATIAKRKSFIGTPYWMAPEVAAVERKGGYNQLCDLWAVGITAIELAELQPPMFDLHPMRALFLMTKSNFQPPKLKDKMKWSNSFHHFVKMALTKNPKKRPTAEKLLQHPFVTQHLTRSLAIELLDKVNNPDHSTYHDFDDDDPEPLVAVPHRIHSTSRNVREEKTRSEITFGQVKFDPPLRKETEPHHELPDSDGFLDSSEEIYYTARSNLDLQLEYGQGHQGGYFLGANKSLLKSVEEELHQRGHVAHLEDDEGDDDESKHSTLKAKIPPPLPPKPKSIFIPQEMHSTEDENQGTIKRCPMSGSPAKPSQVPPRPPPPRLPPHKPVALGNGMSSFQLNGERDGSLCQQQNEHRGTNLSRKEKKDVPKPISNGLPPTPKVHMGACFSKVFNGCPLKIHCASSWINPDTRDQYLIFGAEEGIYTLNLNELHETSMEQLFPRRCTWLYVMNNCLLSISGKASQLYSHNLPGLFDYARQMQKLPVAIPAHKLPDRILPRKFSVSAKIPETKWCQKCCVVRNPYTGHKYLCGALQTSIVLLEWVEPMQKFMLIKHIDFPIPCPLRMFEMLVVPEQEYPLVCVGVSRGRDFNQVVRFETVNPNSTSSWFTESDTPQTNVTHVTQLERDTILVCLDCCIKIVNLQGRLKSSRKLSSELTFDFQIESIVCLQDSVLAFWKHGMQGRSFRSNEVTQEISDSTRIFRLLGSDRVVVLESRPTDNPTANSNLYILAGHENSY
Description: Selectivity interaction (KinomeScan (DiscoverX)) EUB0000045b MAP4K3.

Dual specificity protein kinase CLK1, sequence (P49759 whole entry, looked up): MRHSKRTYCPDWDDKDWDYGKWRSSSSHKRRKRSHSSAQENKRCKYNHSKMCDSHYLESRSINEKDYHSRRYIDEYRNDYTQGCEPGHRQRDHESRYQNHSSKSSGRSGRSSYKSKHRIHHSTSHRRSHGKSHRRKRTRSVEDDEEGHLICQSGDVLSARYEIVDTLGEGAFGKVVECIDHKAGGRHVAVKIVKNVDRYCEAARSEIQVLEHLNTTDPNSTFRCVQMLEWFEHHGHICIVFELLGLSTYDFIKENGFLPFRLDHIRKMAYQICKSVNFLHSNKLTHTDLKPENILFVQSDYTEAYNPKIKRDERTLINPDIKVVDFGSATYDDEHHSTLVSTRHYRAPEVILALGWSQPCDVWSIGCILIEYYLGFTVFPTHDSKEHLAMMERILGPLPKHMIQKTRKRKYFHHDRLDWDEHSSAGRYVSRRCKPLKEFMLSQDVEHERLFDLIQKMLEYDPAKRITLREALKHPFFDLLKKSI
Insulin receptor-related protein (Homo sapiens), sequence (P14616 27-742 limits assumed): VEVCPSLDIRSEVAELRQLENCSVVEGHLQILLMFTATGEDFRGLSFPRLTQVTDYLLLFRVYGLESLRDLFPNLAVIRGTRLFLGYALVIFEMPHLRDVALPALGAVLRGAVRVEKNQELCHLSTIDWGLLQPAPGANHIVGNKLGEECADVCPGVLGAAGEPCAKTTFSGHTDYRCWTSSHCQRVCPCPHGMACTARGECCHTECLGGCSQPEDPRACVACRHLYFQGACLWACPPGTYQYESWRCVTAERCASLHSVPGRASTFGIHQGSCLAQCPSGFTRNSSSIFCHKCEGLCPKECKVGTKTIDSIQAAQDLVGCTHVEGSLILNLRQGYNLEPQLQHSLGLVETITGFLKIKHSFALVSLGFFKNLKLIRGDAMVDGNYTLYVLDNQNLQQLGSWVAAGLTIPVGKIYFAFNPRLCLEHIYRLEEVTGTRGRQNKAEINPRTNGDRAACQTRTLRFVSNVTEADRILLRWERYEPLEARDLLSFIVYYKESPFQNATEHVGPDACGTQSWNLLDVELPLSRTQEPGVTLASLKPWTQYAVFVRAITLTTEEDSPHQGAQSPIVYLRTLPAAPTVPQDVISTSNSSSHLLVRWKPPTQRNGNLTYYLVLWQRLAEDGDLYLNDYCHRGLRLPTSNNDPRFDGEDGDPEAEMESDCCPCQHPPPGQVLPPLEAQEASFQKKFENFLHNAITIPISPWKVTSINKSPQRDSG
Insulin receptor-related protein (Homo sapiens), sequence (P14616 747-1297 limits assumed): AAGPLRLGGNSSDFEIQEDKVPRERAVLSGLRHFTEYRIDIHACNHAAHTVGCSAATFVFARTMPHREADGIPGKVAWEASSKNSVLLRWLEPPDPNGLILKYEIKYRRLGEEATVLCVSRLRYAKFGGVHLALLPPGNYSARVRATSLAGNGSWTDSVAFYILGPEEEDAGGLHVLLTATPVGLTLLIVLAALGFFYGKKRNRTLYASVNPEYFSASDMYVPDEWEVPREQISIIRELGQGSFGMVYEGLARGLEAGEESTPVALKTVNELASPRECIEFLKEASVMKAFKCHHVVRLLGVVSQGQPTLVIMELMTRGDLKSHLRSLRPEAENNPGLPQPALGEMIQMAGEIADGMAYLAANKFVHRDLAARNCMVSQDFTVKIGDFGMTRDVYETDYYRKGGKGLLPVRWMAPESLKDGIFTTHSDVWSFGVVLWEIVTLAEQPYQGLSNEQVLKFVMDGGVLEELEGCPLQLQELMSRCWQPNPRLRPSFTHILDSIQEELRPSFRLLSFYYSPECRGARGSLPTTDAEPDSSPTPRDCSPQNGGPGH
Insulin-like growth factor 1 receptor, sequence (P08069 31-736 limits assumed): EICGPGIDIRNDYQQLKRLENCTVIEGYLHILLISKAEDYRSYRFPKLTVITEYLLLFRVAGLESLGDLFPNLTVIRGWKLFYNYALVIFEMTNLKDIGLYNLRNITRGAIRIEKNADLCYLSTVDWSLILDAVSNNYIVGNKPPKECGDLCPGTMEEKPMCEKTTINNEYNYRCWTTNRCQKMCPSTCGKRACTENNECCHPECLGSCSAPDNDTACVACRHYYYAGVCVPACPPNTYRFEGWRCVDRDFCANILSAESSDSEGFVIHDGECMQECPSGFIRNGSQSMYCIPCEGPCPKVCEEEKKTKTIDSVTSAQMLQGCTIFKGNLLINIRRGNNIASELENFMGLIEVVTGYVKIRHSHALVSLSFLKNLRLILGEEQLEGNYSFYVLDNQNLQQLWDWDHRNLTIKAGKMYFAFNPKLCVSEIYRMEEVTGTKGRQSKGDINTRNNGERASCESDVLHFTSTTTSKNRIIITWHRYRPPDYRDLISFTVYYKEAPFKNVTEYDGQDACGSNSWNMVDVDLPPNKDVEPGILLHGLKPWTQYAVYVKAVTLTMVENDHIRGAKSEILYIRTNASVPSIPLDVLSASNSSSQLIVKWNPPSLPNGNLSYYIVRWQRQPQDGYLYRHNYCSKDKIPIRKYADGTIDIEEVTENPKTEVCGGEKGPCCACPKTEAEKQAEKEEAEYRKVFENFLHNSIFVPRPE
Insulin-like growth factor 1 receptor, sequence (P08069 741-1367 limits assumed): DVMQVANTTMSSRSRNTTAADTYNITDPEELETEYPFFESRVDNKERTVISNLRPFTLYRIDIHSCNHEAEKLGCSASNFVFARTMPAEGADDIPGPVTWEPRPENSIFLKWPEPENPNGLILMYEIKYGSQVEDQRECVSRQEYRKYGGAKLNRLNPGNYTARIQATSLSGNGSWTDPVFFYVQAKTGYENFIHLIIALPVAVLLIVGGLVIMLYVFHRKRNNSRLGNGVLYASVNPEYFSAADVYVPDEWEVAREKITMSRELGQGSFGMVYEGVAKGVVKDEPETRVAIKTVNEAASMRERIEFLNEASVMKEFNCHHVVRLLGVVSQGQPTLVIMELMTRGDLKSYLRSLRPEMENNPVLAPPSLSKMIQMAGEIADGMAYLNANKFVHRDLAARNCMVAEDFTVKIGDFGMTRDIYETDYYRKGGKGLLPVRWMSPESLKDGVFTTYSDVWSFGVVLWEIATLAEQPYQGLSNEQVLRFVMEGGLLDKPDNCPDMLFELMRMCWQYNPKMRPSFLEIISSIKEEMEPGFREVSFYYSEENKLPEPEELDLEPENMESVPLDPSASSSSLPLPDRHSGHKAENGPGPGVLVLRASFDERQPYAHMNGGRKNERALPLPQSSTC
Serine/threonine-protein kinase 33 (Homo sapiens), sequence (Q9BYT3 whole entry, looked up): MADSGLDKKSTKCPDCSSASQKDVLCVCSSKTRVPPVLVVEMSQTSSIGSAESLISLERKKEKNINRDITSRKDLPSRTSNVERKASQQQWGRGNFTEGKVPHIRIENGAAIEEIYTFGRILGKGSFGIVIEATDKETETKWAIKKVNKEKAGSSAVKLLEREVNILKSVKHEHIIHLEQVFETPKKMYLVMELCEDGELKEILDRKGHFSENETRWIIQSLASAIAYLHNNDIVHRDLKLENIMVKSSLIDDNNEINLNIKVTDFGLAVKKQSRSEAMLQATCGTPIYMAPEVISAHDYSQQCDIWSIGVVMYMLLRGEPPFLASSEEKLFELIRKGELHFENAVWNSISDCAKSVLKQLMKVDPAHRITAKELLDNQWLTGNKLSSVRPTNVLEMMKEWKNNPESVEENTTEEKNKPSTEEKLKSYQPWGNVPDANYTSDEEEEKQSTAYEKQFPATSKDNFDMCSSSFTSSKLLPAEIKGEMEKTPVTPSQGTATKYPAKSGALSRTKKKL
Tyrosine-protein kinase JAK1, sequence (P23458 whole entry): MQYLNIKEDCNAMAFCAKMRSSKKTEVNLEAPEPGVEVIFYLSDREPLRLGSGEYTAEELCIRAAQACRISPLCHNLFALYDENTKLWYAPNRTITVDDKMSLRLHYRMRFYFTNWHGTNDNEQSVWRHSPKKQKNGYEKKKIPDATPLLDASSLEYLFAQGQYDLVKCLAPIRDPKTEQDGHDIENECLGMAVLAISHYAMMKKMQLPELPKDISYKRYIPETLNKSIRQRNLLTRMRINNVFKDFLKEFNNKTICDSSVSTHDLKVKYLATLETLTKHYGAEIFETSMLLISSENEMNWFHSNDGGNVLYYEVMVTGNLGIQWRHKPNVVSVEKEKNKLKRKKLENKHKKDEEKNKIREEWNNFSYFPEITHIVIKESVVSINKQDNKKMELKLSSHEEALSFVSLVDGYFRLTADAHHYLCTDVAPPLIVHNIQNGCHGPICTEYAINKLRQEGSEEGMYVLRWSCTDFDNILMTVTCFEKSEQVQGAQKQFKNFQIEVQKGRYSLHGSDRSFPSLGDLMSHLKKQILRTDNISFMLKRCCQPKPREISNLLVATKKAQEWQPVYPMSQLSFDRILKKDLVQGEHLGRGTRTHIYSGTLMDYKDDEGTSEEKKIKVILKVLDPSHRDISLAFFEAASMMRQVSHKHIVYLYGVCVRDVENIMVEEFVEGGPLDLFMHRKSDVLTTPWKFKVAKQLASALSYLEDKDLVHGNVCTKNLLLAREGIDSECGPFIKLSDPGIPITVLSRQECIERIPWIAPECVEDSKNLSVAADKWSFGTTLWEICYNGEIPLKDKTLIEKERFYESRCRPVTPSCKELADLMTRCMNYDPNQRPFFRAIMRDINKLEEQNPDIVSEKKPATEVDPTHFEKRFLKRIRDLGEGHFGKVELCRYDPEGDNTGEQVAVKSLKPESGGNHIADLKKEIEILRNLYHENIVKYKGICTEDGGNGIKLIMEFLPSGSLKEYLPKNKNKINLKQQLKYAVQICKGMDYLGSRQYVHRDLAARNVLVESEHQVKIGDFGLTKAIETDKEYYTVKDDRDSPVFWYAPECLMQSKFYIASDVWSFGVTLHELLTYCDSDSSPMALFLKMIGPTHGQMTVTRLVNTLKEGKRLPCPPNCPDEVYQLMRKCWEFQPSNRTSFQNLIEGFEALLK

Take `Cn1cc(-n2cnc3c(NCc4nc5cc(Cl)c(Cl)cc5[nH]4)nc(N4CCOCC4)nc32)cn1`: in [1], the % of inhibition was -17.6%.

Regarding `O=C(NOC[C@H](O)CO)c1ccc(F)c(F)c1Nc1ccc(I)cc1F`, the % of control in test [2] is 81%.

`Nc1cnc(N2CCc3cc(S(=O)(=O)Nc4c(F)cc(Cl)cc4F)cc(N4CCCC4=O)c32)nc1` [TP-020n] registered a % of control in test [3] of 62%.

Regarding `CN1Cc2nccc(-c3cn(C)nc3-c3ccc(F)cc3)c2C1=O`, in test [4], the % of inhibition was -5%.

`CC[C@@H]1[C@H](F)C(=O)N[C@@H]1COc1nccc2cc(C(N)=O)c(OC)cc12` [ZIMLOVISERTIB]: the % of inhibition in test [5] was -5.3%; in test [6] it was 10%.

Take `COc1cc(Nc2nc(C)cc(-c3cnn4nc(OC)ccc34)n2)cc(C(F)(F)F)c1`: the % of control in test [7] was 91%.

In the case of `C=CC(=O)Nc1cccc(C(=O)Nc2ccc(Nc3cc(-c4[nH]c(SC)nc4C)ccn3)cc2)c1`, the % of control was found to be 67% in test [8] (at 1 µM) and 37% in test [8] (at 5 µM).

With `C=CC(=O)Nc1cc(-n2c(=O)ccc3cnc4ccc(-c5ccc(NS(C)(=O)=O)cc5)cc4c32)ccc1C`, the % of control in test [9] (at 1 µM) came to 84%; in [9] (at 10 µM), 100%; in test [10] (at 1 µM) it was 100%; in test [10] (at 10 µM), 100%.
